Here are results for 43 compounds from patent publication US7034039B2, “Fused heterocyclic compounds” (Takeda Pharmaceutical Company Limited, priority 2001, dated 2006).

For data set [1], the target named is T1, Caco-2-derived dipeptidyl peptidase IV (Homo sapiens, UniProt P27487).
T1 construct: A dipeptidyl peptidase IV crude enzyme solution was prepared from culture cell of Caco-2 (ATCC HTB-37); endogenous in cells; host or cells: Caco-2 (ATCC HTB-37)
Put plainly: Determination of Caco-2-derived dipeptidyl peptidase IV inhibitory activity. The settings on record: Caco-2 crude enzyme solution, substrate Gly-Pro-p-NA, 37° C., absorbance 405 nm after 0 h and 3 h. It counts as biochemical.
Experimental: 1) Preparation of Dipeptidyl Peptidase IV Crude Enzyme Solution
A dipeptidyl peptidase IV crude enzyme solution was prepared from culture cell of Caco-2 (ATCC HTB-37). The Caco-2 cells were cultured in D-MEM medium (manufactured by Nissui Pharmaceutical Co., Ltd.) containing 10% FBS (fetal calf serum (manufactured by GIBCO)). The cell extract was prepared by soaking the cells collected by removing the medium in 20 mM phosphate buffer. (pH 7.5) containing 0.5% Triton X-100, extracting for 30 min in an ice bath and separating the supernatant obtained by centrifugation 1500 g for 30 min. The cell extract (22 ml) was applied to a column of Sephadex G-200 (600 ml, manufactured by Pharmacia Corporation) equilibrated with 20 mM Tris-hydrochloride buffer (pH 7.5) and eluted with the same buffer. The elution was fractionated by 10 ml, examined for enzyme activity and 190 ml–280 ml fractions (90 ml) were collected. […]
An N,N-dimethylformamide solution (5 μl) containing the test compound was added to a mixture of water (25 μl), 1M Tris-hydrochloride buffer (10 μl, pH 7.5) and 1 mM aqueous glycylprolyl-p-nitroanilide (Gly-Pro-p-NA; manufactured by Backem AG) solution (50 μl) to prepare a mixed solution. […] The absorbance after 0 h and 3 h was measured using a microplate reader (Multiskan Bichromatic; manufactured by Labsystems) at a wavelength of 405 nm and an increase (ΔODs) was determined. […]

In data set [2] the target is T2, dipeptidyl peptidase IV in rat plasma (Rattus norvegicus, UniProt P14740).
T2 construct: Plasma (20 μl) prepared from blood of SD rat by a conventional method; from tissue; host or cells: plasma of SD rat
T2 sequence (P14740 38-767 limits assumed): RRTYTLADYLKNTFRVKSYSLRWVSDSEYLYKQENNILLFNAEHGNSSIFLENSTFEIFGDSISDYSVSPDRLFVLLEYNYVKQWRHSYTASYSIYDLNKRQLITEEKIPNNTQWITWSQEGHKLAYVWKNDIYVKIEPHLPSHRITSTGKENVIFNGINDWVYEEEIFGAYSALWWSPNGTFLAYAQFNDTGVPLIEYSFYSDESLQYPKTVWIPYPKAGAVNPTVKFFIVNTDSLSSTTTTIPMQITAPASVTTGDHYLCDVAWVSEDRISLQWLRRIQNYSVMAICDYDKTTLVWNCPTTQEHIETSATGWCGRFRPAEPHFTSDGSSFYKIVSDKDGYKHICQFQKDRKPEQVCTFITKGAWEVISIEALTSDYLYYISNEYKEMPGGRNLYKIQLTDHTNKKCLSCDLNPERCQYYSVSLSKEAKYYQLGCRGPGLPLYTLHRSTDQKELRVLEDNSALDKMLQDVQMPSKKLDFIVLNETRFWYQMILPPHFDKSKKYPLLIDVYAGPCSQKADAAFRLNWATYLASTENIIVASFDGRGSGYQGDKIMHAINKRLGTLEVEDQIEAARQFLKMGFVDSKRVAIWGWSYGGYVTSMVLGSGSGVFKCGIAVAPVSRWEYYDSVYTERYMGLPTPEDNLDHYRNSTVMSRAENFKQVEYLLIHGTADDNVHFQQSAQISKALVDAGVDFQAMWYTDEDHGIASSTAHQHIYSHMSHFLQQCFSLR
Nature of the data set: Determination of dipeptidyl peptidase IV inhibitory activity in rat plasma. It counts as biochemical. The settings on record: SD rat plasma, substrate Gly-Pro-p-NA, 30° C., absorbance 405 nm after 0 h and 1 h.
Experimental: Determination of Dipeptidyl Peptidase IV Inhibitory Activity in Rat Plasma
An N,N-dimethylformamide solution (1 μl) containing the test compound was added to a mixture of water (69 μl), 1M Tris-hydrochloride buffer (10 μl, pH 7.5) and 1 mM aqueous Gly-Pro-p-NA solution (100 μl) to prepare a mixed solution. Plasma (20 μl) prepared from blood of SD rat by a conventional method was added the above-mentioned, mixed solution and the enzyme reaction was started at 30° C. The absorbance after 0 h and 1 h was measured using a microplate reader at a wavelength of 405 nm and an increase (ΔODs) was determined. At the same time, an increase (ΔODc) in absorbance of the reaction mixture without the test compound, and an increase (ΔODb) in absorbance of the reaction mixture without the test compound and the enzyme were determined and percent inhibition of dipeptidyl peptidase IV enzyme activity was calculated from the following formula: {1-[(ΔODs−ΔODb)/(ΔODc−ΔODb)]}×100

The test system of data set [3] is Wistar fatty rats. Nature of the data set: Plasma glucose-lowering effect and insulinotropic effect in rat (oral glucose tolerance test). The settings on record: female Wistar fatty rats, 3 mg/kg orally 60 min before glucose load (1 g/kg), blood at 30 min after glucose load. It counts as in vivo.
Experimental: Plasma Glucose-lowering Effect and Insulinotropic Effect in Rat
Female Wistar fatty rats (17-week-old, 6 per group) were fasted overnight and blood was drawn from the tail vein. The plasma glucose level before administration of the test compound was measured. Then the test compound (3 mg/kg body weight/5 mL) suspended in 0.5% methyl cellulose was orally administered to the rats using a gastric tube. Oral glucose tolerance test (1 g/kg body weight/5 mL) was started 60 min later. Blood was drawn at 30 min after starting glucose load, and plasma glucose level and insulin level of the serum were measured.

Counter-ions that a name gives are not always drawn.

T1 sequence (P27487 whole entry): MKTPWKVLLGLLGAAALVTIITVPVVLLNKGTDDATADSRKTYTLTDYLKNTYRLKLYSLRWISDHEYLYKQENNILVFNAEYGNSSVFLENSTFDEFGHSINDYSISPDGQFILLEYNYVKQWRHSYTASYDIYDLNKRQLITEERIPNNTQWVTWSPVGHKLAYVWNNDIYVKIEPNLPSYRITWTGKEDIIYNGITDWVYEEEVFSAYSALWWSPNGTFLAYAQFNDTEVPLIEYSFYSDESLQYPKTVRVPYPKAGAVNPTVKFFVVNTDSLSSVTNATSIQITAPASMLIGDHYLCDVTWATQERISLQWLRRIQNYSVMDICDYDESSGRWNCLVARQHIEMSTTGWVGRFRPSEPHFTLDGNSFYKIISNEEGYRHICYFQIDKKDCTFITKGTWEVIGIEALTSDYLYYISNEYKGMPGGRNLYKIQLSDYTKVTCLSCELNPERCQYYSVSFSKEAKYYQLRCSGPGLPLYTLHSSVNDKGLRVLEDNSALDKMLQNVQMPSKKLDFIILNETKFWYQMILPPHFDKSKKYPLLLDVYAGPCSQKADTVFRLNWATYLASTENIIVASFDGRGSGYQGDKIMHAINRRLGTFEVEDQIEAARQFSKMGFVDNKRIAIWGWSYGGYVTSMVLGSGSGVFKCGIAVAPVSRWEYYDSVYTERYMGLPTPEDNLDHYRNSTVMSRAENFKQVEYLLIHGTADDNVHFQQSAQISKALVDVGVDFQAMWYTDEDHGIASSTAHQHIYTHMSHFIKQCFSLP

Turning to `Cc1ccc(-c2c(CN)n(CC(C)C)c(=O)c3ccccc23)cc1.Cl`, the melting point is 178 to 180 °C (dec.).

`CCCCOc1c(CN)n(CC2CC2)c(=O)c2ccc(-c3cnco3)cc12.Cl` had a melting point of 124 to 126 °C.

Take `CCCCOc1c(CN)n(CC2CC2)c(=O)c2ccc(/C=C/C(N)=O)cc12.Cl`: the melting point is 188 to 190 °C.

In the case of `CCCCOc1c(CN)n(CC(C)C)c(=O)c2ccc(/C=C/C(N)=O)cc12.Cl`, the melting point is 223 to 225 °C.

Turning to `CCCCOc1c(CN)n(CC(C)C)c(=O)c2ccc(-c3cnco3)cc12.Cl`, the melting point was 211 to 213 °C.

`CC(C)Cn1c(CN)c(-c2cccc(F)c2)c2cc(OCC(N)=O)ccc2c1=O.Cl` showed a melting point of 209 to 210 °C.

The compound `CC(C)Cn1c(CN)c(-c2ccc(F)cc2)c2cc(OCC(N)=O)ccc2c1=O.Cl` had a melting point of 189 to 190 °C.

For the compound `CC(=O)c1ccc2c(=O)n(CC(C)C)c(CN)c(-c3ccccc3)c2c1.Cl`, the melting point is 179 °C (dec.).

`CC(C)Cn1c(CN)c(-c2ccccc2)c2cc(-c3nn[nH]n3)ccc2c1=O.Cl` showed a melting point of 218 to 220 °C.

`CSc1ccc2c(=O)n(CC(C)C)c(CN)c(-c3ccccc3)c2c1.Cl` displayed a melting point of 252 to 255 °C.

As to `CC(C)Cn1c(CN)c(-c2ccccc2)c2cc(S(C)(=O)=O)ccc2c1=O.Cl`, the melting point is 209 °C (dec.).

With `CC(C)Cn1c(CN)c(-c2ccccc2)c2cc(-c3noc(=O)[nH]3)ccc2c1=O.Cl`, the melting point is 253 °C (dec.).

For `CC(C)Cn1c(CN)c(-c2ccccc2)c2cc(-c3nsc(=O)[nH]3)ccc2c1=O.Cl`, the melting point is 232 to 237 °C.

For `CC(C)Cn1c(CN)c(-c2ccc(Cl)cc2)c2cc(O)ccc2c1=O.Cl`, the melting point fell in the range of 247 to 249 °C.

With `CCCCOc1c(CN)n(CC(C)C)c(=O)c2ccc(C(N)=S)cc12.Cl`, the melting point lay in the range of 200 to 202 °C.

Regarding `Cc1ccc(-c2c(CN)n(CC(C)C)c(=O)c3ccc(O)cc23)cc1.Cl`, the melting point lay within 255 to 256 °C.

The compound `CC(C)Cn1c(CN)c(-c2ccc(F)cc2)c2cc(/C=C/C(=O)O)ccc2c1=O.Cl` registered a melting point of 255 to 256 °C.

As for `CCCCOc1c(CN)n(CC(C)(C)C)c(=O)c2ccc(CC(N)=O)cc12.Cl`, the melting point was in the range of 163 to 165 °C.

In the case of `CC(C)Cn1c(CN)c(-c2ccccc2)c2cc(CC#N)ccc2c1=O.Cl`, the melting point was in the range of 142 to 144 °C.

`CCCCOc1c(CN)n(CC(C)C)c(=O)c2ccc(C#N)cc12.Cl` had a melting point of 135 to 136 °C.

`CCCCOc1c(CN)n(CC(C)C)c(=O)c2ccc(NC(=O)C(C)C)cc12.Cl`: the melting point lay in the range of 181 to 183 °C.

`CCCCOc1c(CN)n(CC(C)(C)C)c(=O)c2ccc(OCC(N)=O)cc12` (as salt: hydrochloride) [Example 95, 2-{{3-(Aminomethyl)-4-butoxy-2-neopentyl-1-oxo-1,2-dihydro-6-isoquinolinyl}oxy}acetamide hydrochloride] had a melting point of 233 to 235 °C.

`CCCCOc1c(CN)n(CC2CC2)c(=O)c2ccc(C(N)=O)cc12.Cl` (hydrate or solvate) registered a melting point of 164 to 165 °C.

`CCCCOc1c(CN)n(CC2CC2)c(=O)c2ccc(OCC(N)=O)cc12.Cl` (hydrate or solvate): the melting point was in the range of 133 to 134 °C.

`CCCCOc1c(CN)n(CC(C)C)c(=O)c2ccc(OCC(N)=O)cc12.Cl` (hydrate or solvate) returned a melting point of 248 to 250 °C.

In turn, `CC(C)Cn1c(CN)c(-c2ccccc2)c2cc(/C=C/C(N)=O)ccc2c1=O.Cl` (hydrate or solvate) returned a melting point of 223 to 225 °C.

`CCCCOc1c(CN)n(CC(C)(C)C)c(=O)c2ccc(/C=C/C(N)=O)cc12.Cl` (hydrate or solvate) yielded a melting point of 187 to 188 °C.

Compound `CC(C)Cn1c(CN)c(OCCCC(F)(F)F)c2cc(OCC(N)=O)ccc2c1=O.Cl` (hydrate or solvate) gave a melting point of 147 to 148 °C.

With `Cc1ccc(-c2c(CN)n(CC(C)C)c(=O)c3ccc(OCC(N)=O)cc23)cc1.Cl` (hydrate or solvate), the melting point is 278 to 280 °C.

As for `Cc1csc(-c2ccc3c(=O)n(CC(C)C)c(CN)c(-c4ccccc4)c3c2)n1` (hydrate or solvate) [Example 194, 3-(Aminomethyl)-2-isobutyl-6-(4-methyl-1,3-thiazol-2-yl)-4-phenyl-1(2H)-isoquinolinone], the melting point fell in the range of 162 to 163 °C.

`CCCCOc1c(CN)n(CC(C)(C)C)c(=O)c2ccc(OCC(N)=O)cc12` [Example 95, 2-{{3-(Aminomethyl)-4-butoxy-2-neopentyl-1-oxo-1,2-dihydro-6-isoquinolinyl}oxy}acetamide hydrochloride] displayed an IC50 in data set [1] of 280 nM. In data set [2], this compound returned an IC50 of 180 nM. Besides, in data set [3], the Plasma glucose level is 82 % of control and the insulin level is reported as 188 % of control.

On to `CC(C)Cn1c(CN)c(-c2ccccc2)c2cc(Br)ccc2c1=O` [Example 106, 3-Aminomethyl-6-bromo-2-isobutyl-4-phenyl-1(2H)-isoquinolinone], for which the melting point is 129 to 130 °C.

Consider `CC(C)Cn1c(CN)c(-c2ccccc2)c2cc(C(N)=O)ccc2c1=O` [Example 109, 3-Aminomethyl-2-isobutyl-4-phenyl-1(2H)-isoquinolinone-6-carboxamide hydrochloride [3-(aminomethyl)-2-isobutyl-1-oxo-4-phenyl-1,2-dihydro-6-isoquinolinecarboxamide hydrochloride]], for which, in data set [3], the Plasma glucose level is 73 % of control and the insulin level is on record as 205 % of control.

For `CC(=O)Nc1ccc2c(=O)n(CC(C)C)c(CN)c(-c3ccccc3)c2c1.Cl` [Example 112, 6-Acetylamino-3-aminomethyl-2-isobutyl-4-phenyl-1(2H)-isoquinolinone hydrochloride], the IC50 in data set [1] was 250 nM; in data set [2], 320 nM. Further, the Plasma glucose level in data set [3] is given as 76 % of control. The insulin level in data set [3] was 255 % of control.

The compound `CCn1c(CN)c(-c2ccccc2)c2cc(Cl)ccc2c1=O` [Example 113, 3-(Aminomethyl)-6-chloro-2-ethyl-4-phenyl-1(2H)-isoquinolinone] displayed a melting point of 126 to 127 °C.

Take `CC(C)Cn1c(CN)c(-c2ccccc2)c2cc(Cl)ccc2c1=O` [Example 118, 3-(Aminomethyl)-6-chloro-2-isobutyl-4-phenyl-1(2H)-isoquinolinone]: the melting point is 123 to 124 °C.

In turn, `CC(C)(C)Cn1c(CN)c(-c2ccccc2)c2cc(Cl)ccc2c1=O` [Example 122, 3-(Aminomethyl)-6-chloro-2-neopentyl-4-phenyl-1(2H)-isoquinolinone] yielded a melting point of 173 to 174 °C.

Consider `CC(C)Cn1c(CN)c(-c2ccccc2)c2ccccc2c1=O` [Example 123, 3-(Aminomethyl)-2-isobutyl-4-phenyl-1(2H)-isoquinolinone], for which the melting point lay within 129 to 130 °C.

In turn, `CC(C)Cn1c(CN)c(-c2ccc(Cl)cc2)c2ccccc2c1=O` [Example 124, 3-(Aminomethyl)-4-(4-chlorophenyl)-2-isobutyl-1(2H)-isoquinolinone] had a melting point of 119 to 120 °C.

The compound `CC(C)Cn1c(CN)c(-c2ccccc2)c2cc(/C=C/C(N)=O)ccc2c1=O` [Example 160, (E)-3-[3-(Aminomethyl)-2-isobutyl-1-oxo-4-phenyl-1,2-dihydro-6-isoquinolinyl]-2-propenamide] returned a melting point of 228 to 230 °C.

Turning to `CC1=NN(c2ccc3c(=O)n(CC(C)C)c(CN)c(-c4ccccc4)c3c2)CO1` [Example 166, 3-(Aminomethyl)-2-isobutyl-6-(5-methyl-1,3,4-oxadiazol-3-yl)-4-phenyl-1(2H)-isoquinolinone], the melting point was in the range of 179 to 181 °C.

`CC(C)Cn1c(CN)c(-c2ccccc2)c2cc(SCC(N)=O)ccc2c1=O` [Example 171, 2-{[3-(Aminomethyl)-2-isobutyl-1-oxo-4-phenyl-1,2-dihydro-6-isoquinolinyl]sulfanyl}acetamide] registered a melting point of 218 to 220 °C.

For `CC(C)Cn1c(CN)c(-c2ccccc2)c2cc([S+](C)[O-])ccc2c1=O` (centres unmarked) [Example 172, 3-(Aminomethyl)-2-isobutyl-6-(methylsulfinyl)-4-phenyl-1(2H)-isoquinolinone], the melting point was 167 °C (dec.).

Usually melting point stands for the temperature, or range, at which the solid turns liquid. The term IC50 denotes the concentration that gives 50% inhibition.
